Laboratory results as given in paper PMC8213057, “Targeting ALK2: An Open Science Approach to Developing Therapeutics for the Treatment of Diffuse Intrinsic Pontine Glioma” (Journal of Medicinal Chemistry, 2020).

How the values were obtained:
Experiment in all cases: biochemical
Conditions in all cases: read-out: % enzyme activity, 1 μM; Run 1, Run 2
[1] = molecular target: CDK2/Cyclin A1 (Homo sapiens, UniProt P24941)
[2] = molecular target: SRMS (Homo sapiens, UniProt Q9H3Y6)
[3] = molecular target: T1, NEK2 (Homo sapiens, UniProt P51955)
T1 sequence (P51955 1-445): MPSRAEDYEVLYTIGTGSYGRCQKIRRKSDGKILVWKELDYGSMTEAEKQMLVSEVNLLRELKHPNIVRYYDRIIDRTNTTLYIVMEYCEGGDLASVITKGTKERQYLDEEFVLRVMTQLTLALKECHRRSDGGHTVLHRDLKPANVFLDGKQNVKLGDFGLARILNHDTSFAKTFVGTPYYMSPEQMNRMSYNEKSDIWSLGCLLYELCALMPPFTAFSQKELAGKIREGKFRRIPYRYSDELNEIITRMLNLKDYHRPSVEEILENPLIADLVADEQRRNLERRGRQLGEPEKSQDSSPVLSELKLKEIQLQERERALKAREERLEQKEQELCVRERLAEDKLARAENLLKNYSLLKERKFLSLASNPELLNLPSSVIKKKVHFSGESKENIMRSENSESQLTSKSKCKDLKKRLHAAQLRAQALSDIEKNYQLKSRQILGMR

[4] = molecular target: T2, ASK1/MAP3K5 (Homo sapiens, UniProt Q99683)
T2 sequence (Q99683 1-1374): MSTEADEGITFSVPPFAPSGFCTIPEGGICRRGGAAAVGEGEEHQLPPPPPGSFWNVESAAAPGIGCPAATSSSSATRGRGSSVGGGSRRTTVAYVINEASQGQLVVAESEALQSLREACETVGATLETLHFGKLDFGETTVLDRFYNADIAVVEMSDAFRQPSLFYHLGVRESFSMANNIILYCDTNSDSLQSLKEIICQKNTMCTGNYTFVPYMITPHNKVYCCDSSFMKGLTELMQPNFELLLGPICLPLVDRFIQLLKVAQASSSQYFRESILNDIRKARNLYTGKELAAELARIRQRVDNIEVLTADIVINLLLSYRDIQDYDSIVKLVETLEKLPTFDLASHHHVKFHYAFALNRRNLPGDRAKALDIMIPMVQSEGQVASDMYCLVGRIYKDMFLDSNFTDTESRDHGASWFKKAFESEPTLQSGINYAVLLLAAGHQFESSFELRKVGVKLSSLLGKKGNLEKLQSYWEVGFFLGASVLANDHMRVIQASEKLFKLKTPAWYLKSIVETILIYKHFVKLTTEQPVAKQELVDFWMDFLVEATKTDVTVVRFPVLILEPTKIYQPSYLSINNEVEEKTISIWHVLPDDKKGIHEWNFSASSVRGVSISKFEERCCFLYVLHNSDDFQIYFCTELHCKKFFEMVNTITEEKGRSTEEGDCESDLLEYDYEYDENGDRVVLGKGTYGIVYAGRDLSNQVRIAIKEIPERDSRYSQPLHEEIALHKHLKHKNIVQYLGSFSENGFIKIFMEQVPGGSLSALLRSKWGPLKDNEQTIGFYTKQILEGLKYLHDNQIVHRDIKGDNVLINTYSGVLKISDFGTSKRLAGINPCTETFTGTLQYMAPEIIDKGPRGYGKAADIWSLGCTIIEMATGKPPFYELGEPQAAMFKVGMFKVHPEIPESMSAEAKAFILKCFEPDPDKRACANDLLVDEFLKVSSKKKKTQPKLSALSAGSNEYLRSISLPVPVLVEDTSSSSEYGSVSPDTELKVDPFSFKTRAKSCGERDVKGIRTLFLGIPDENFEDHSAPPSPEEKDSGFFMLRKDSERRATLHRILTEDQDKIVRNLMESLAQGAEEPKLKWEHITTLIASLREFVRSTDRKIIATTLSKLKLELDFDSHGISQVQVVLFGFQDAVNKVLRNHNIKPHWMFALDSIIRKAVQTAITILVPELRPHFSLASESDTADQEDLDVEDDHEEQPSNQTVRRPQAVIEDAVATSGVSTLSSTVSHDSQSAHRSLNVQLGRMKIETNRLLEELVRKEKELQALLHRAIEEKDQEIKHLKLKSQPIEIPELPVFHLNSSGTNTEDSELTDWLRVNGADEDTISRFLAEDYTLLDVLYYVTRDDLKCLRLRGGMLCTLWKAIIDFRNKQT

Sequence of SRMS (Q9H3Y6 whole entry): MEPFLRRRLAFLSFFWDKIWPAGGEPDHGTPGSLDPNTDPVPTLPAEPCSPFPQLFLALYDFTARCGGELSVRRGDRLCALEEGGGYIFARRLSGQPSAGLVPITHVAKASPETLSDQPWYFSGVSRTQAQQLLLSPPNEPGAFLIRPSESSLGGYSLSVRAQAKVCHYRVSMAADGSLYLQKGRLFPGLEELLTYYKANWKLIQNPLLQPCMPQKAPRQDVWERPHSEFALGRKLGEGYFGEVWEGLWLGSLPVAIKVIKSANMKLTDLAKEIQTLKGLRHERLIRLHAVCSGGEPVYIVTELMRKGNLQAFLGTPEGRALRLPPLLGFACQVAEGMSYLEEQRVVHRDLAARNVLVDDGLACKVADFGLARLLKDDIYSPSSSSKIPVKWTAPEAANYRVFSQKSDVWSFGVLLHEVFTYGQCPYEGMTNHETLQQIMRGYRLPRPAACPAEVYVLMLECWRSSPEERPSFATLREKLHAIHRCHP

Compound	remaining activity at 1 µM [1]	remaining activity at 1 µM [2]	remaining activity at 1 µM [3]	remaining activity at 1 µM [4]
COc1cc(-c2cncc(-c3ccc(N4CCN(C)CC4)cc3)c2C)cc(F)c1C(N)=O [Compound 26a, 2-Fluoro-6-methoxy-4-(4-methyl-5-(4-(4-methylpiperazin-1-yl)phenyl)pyridin-3-yl)benzamide]	99.9%	96.6%	92.3%	95.5%
COc1cc(-c2cncc(-c3ccc(N4C[C@@H](C)N(C)[C@@H](C)C4)cc3)c2C)cc(F)c1C(N)=O [Compound 26c, 2-Fluoro-6-methoxy-4-(4-methyl-5-(4-((3R,5S)-3,4,5-trimethylpiperazin-1-yl)phenyl)pyridin-3-yl)benzamide]	98.2%	96.1%	98.5%	97.8%
